Measurements: patent US20230368862A1, “BINDING SITE IN TYPE 2 RYANODINE RECEPTOR” (The Trustees of Columbia University in the City of New York, priority 2021, published 2023)

What was measured:
Ryr2^R2474S/WT mice = test: Telemetric electrocardiogram recordings during epinephrine arrhythmia provocation; assay type: in vivo
Text: Ryr2^R2474S/WT mice were implanted with radio telemetry transmitters (Data Sciences International). Briefly, the transmitter (PhysioTel, ETA-F10 transmitter) was inserted in mice subcutaneously along the back under general anesthesia (5% inhaled isoflurane). Two electrocardiogram (ECG) electrodes were placed hypodermically in the region of the right shoulder (negative pole) and toward the lower left chest (positive pole) to approximate lead II of the Einthoven surface ECG. During the procedure, respiratory and cardiac rhythm, adequacy of anesthetic depth, muscle relaxation, body temperature, and analgesia were monitored to avoid anesthesia-related complications. Postoperative pain was considered during a 1-week post-implantation period, and carprofen (5 mg/kg, subcutaneously) was given. A minimum period of 2 weeks was allowed for recovery from the surgery. Animals were housed in individual stainless-steel cages for telemetry recordings. Environmental parameters were recorded continuously and maintained within a fixed range: room temperature at 15° C. to 21° C. and 45 to 65% relative humidity. The artificial day/night cycle was 12-hour light/12-hour dark with light on at 0700 hours. Drinking water was provided ad libitum. Solid diet ([…]) was given daily in the morning. ECG waveforms were continuously recorded at a sampling rate of 2000 Hz using a signal transmitter-receiver (RPC-1) connected to a data acquisition system (Ponemah system, Data Sciences International). Compound 1 (50 mg/kg per day) was given in drinking water for 2 weeks before ECG recordings. Mice were recorded for 1 hour at baseline and then given epinephrine injection (1 mg/kg, intraperitoneally) and recorded for another 2 hours. The animals used in the study were maintained and studied according to protocols approved by the Institutional Animal Care and Use Committee of Columbia University (reference no. AC-AABP1551).

[1] = target: T1, PKA phosphorylated RyR2-R2474S (Homo sapiens, UniProt Q92736, R2474S); test: Cryo-EM analysis with normalized difference in RMSD (pairwise domain comparison)
T1 construct: Each fragment was subcloned into a full-length human RYR2 construct in pCMV5 vector; made in house; host or cells: HEK293 (RyR2-R2474S, transient); E. coli BL21(DE3) (GST-calstabin-2)
T1 sequence (Q92736 whole entry R2474S, the tested form may be a part): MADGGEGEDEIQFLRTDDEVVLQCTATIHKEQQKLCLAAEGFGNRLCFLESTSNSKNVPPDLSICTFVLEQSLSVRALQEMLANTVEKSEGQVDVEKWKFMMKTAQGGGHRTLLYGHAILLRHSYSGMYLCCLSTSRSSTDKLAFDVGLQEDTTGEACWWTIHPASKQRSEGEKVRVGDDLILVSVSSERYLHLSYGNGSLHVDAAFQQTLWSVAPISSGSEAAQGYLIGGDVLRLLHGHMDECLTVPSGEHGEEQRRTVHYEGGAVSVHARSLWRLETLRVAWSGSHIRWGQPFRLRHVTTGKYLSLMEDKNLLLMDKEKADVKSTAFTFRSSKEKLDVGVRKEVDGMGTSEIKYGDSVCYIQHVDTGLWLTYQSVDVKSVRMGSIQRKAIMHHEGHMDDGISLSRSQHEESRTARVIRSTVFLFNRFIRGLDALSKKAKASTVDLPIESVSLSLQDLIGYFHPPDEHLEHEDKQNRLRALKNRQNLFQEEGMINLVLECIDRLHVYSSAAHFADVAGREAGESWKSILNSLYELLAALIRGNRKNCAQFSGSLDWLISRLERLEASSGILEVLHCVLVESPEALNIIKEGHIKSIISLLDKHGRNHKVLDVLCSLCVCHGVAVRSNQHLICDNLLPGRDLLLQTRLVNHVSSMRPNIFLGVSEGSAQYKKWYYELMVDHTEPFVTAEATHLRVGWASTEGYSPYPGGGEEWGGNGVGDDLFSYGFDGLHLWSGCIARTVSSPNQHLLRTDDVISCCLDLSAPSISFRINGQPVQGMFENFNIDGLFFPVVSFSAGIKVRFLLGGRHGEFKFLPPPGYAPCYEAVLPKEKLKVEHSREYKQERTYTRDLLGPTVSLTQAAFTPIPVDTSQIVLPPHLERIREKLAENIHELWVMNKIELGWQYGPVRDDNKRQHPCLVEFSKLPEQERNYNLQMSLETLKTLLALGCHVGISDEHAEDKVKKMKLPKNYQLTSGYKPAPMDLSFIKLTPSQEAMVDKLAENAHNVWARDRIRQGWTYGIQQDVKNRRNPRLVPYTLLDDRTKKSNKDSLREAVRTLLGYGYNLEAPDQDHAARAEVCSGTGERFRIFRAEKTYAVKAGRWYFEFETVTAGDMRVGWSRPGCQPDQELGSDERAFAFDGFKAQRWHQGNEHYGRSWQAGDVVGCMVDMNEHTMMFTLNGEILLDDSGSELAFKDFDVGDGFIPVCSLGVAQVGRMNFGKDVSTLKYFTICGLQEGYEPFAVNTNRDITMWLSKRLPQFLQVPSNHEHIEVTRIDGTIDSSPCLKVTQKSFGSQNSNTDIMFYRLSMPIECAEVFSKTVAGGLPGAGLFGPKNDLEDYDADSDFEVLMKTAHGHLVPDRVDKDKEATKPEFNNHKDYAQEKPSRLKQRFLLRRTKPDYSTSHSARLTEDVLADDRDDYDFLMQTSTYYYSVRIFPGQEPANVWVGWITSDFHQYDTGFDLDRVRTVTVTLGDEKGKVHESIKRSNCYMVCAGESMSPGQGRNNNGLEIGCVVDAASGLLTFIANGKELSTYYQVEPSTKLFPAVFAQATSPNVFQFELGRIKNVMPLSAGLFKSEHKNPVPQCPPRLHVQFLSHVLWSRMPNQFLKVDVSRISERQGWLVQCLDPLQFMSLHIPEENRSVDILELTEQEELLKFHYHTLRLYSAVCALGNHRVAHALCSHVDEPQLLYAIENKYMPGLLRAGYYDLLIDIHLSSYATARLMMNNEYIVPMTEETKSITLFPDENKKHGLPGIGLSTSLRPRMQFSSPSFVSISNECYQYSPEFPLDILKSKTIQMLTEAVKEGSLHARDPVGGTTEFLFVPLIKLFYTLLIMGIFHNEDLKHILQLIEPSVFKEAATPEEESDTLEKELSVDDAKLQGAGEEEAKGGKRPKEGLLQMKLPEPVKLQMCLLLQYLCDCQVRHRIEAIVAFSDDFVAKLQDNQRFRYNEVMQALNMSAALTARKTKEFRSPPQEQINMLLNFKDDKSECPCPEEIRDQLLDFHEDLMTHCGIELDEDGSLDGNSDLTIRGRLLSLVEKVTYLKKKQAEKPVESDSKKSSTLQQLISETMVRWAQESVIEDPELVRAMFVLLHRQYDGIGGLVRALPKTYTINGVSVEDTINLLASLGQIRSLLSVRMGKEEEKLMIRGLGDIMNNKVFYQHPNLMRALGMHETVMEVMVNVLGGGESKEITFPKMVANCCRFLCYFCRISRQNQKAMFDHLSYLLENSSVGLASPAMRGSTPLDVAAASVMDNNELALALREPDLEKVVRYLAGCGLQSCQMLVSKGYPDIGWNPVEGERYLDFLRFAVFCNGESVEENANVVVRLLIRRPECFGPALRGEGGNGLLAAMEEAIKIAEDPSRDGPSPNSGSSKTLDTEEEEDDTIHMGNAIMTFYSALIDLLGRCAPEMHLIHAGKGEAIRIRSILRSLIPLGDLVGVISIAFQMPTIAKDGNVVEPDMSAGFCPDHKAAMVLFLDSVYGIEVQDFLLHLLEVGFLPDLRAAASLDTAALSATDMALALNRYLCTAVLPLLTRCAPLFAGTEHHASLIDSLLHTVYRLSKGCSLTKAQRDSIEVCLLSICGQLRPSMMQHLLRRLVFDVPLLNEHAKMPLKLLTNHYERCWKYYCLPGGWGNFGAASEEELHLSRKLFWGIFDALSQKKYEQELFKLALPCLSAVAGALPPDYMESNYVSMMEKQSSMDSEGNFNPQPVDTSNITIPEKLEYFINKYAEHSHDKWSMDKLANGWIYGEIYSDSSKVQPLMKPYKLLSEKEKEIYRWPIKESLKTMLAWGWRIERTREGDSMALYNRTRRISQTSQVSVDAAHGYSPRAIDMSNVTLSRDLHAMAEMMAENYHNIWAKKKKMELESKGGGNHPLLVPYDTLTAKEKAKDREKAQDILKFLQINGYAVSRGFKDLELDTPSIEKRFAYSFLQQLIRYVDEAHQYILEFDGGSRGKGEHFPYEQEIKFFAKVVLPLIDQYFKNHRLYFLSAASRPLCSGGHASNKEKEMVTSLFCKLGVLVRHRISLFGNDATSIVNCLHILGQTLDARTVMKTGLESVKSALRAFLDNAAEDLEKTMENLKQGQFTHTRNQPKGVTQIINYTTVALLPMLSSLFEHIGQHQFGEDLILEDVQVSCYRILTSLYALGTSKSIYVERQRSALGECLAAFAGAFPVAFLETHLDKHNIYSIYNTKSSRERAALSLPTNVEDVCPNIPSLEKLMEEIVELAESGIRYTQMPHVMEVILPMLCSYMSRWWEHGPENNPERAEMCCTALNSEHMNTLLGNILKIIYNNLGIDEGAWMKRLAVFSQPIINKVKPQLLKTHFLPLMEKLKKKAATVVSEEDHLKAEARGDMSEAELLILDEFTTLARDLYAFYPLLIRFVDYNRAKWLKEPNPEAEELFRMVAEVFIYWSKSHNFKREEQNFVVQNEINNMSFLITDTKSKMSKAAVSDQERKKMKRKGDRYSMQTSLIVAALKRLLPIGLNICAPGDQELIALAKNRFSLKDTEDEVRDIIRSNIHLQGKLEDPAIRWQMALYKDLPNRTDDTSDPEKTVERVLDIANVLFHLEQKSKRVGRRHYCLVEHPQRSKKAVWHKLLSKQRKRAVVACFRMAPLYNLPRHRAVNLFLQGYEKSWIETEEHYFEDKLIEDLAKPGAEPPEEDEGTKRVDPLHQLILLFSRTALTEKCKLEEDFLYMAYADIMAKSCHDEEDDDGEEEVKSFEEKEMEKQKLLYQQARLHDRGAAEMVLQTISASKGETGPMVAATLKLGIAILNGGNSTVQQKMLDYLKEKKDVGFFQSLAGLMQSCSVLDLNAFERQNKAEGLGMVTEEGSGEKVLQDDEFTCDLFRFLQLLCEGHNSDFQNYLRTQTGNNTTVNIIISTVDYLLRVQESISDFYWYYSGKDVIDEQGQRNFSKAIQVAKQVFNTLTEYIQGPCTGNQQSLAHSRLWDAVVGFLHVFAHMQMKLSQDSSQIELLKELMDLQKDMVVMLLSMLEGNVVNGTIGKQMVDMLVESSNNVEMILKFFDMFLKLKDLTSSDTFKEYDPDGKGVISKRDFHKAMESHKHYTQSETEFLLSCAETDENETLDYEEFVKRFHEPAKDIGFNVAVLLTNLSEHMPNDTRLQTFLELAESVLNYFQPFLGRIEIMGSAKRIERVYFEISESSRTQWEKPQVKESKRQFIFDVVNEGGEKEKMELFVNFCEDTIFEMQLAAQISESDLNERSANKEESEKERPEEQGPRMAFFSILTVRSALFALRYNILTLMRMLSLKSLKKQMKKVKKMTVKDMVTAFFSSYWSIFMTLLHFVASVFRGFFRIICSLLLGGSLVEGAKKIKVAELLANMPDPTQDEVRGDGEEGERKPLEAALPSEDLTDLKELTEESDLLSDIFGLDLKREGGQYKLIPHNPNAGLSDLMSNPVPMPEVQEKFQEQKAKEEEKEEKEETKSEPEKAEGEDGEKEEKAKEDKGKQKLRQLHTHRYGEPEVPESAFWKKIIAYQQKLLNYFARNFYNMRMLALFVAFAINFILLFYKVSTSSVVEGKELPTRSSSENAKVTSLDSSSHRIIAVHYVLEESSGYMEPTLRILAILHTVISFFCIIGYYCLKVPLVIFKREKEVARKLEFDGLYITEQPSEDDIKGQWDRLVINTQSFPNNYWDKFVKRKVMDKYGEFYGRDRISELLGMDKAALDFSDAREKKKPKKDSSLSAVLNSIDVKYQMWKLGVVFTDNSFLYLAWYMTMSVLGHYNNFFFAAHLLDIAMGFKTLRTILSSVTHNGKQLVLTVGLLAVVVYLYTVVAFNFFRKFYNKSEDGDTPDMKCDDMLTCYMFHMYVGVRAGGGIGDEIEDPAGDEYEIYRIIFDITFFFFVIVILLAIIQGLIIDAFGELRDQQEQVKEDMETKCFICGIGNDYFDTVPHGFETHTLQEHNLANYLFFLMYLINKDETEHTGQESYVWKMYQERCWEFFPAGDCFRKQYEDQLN
T1 sequence (P68106 whole entry partner, the tested form may be a part): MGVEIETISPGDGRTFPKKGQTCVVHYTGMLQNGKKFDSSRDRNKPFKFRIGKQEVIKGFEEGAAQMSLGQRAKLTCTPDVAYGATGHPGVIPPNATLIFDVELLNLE
Protocol: Each of the final samples (3 μl each) prepared in EXAMPLE 5 was applied to UltrAuFoil holey gold grids (Quantifoil R 0.6/1.0, Au 300) previously cleaned with easiGlow (PELCO). Grids were blotted with ashless filter paper (Whatman) using blot force 10 and blot time 8 s before vitrification by plunge-freezing into liquid ethane chilled with liquid nitrogen using Vitrobot Mark IV (Thermo Fisher Scientific) operated at 4° C. with 100% relative humidity.
Prepared grids were screened in-house on a Glacios Cryo-TEM (Thermo Fisher Scientific) microscope with a 200-kV x-FEG source and a Falcon 3EC direct electron detector (Thermo Fisher Scientific). Microscope operations and data collection were carried out using EPU software (Thermo Fisher Scientific). High-resolution data collection was performed at Columbia University on a Titan Krios 300-kV (Thermo Fisher Scientific) microscope equipped with an energy filter (slit width 20 eV) and a K3 direct electron detector (Gatan). Data were collected using Leginon and at a nominal magnification of ×105,000 in electron counting mode, corresponding to a pixel size of 0.83 Å. The electron dose rate was set to 16 e^−/pixel per second with 2.5-s exposures for a total dose of 50 to 60 e/A2.
Cryo-EM data processing was performed in cryoSPARC with image stacks aligned using Patch motion, defocus value estimation by Patch CTF estimation. Particle picking was performed using the template picker with templates created from preexisting cryo-EM maps. Particles were subjected to 2D classification in cryoSPARC with 100 classes. Particles from the highest-resolution classes were pooled for ab initio 3D reconstruction with a single class followed by homogeneous refinement with C4 symmetry imposed. 3D variability and further clustering were performed using a mask comprising the TM domain to separate those particles in the closed and open states followed by heterogeneous refinement with four classes to further select the best particles. C4 symmetry expansion was performed before local refinements. The masks used were TaF+TM+CTD domains (residues 4131 to 4967), calstabin-2+NTD+SPRY domains (residues 1 to 1646), JSol+CSol domains (residues 1700 to 2476, 3590 to 4130), and BSol domain (residues 2400 to 3344). Only the TaF+TM+CTD mask used C4 symmetry. Smaller masks, for a second round of 3D variability analysis, clustering, and local refinement, were RY1&2 (residues 862 to 1076), RY3&4 (residues 2685 to 2909), and BSol2 (residues 3042 to 3344). Local refinements used a dynamical mask with a far distance of 10, 50, and 150 Å for the initial masks, small masks, and expanded RY3&4 mask for comparing the effect of RY3&4 stabilization, respectively. The resulting maps were combined in ChimeraX to generate a composite map before calibration of the pixel size using correlation coefficients with a map generated from the crystal structure of the NTD of RyR2 (PDB ID: 4JKQ). The pixel size was altered by 0.001 Å per step, up to 20 steps in each direction.
An initial model of RYR2 was generated with Phenix tool sculptor from a 2.45-Å structure of RyR1 (PDB ID: 7TZC). Truncated residues were manually corrected to obtain the full side chains. Only domains RY1&2 and RY3&4, which show weak cryo-EM density and confidence in structure, were based on crystallographic structures. The initial model of RyR2 RY1&2 domain was generated with Phenix tool sculptor from the RY1&2 domain of RyR3 with ATP (PDB ID: […]). The model of RyR2 RY3&4 domain was obtained as is (PDB ID: 4ETV). Calstabin-2 and CaM models were obtained as is (PDB ID: 6JI8). Model building was performed in Coot and refined with Phenix tool RealSpaceRefine.
This analysis determined the conformation of a certain query domain from a model X relative to reference closed and open states of RyR2. To this end, the RMSD of Ca of the query domain was measured between model X and the closed state (RMSDX-closed), and between model X and the open state (RMSDX-open). […]

RyR2-R2474S channels = target: T2, RyR2-R2474S channels (Mus musculus, UniProt E9Q401, R2473S); test: SR Ca^2+ leak assay in heart microsomes (Fluo-4); assay type: biochemical; settings: heart microsomes from mice treated with epinephrine and Compound 1 in vivo
T2 construct: Cardiac muscle SR microsomes were prepared by homogenizing heart samples on ice; from tissue; host or cells: heart of Ryr2 R2474S/WT mice (SR microsomes)
Protocol: Ca^2+ leak was measured in microsomes from heart lysates isolated from control Ryr^2R2474S/WT mice, Ryr^2R2474S/WT mice treated with epinephrine, and Ryr^2R2474S/WT mice treated with epinephrine and Compound 1 in EXAMPLE 8. […] Cardiac muscle SR microsomes were prepared by homogenizing heart samples on ice using a Teflon glass homogenizer (50 times) with 2 volumes of 20 mM tris-maleate (pH 7.4), 1 mM EDTA, 1 mM DTT, and protease inhibitors (Roche). Homogenate was then spun by centrifuge at 4000 g for 15 min at 4° C., and the resultant supernatant was spun by centrifuge at 50,000 g for 45 min at 4° C. Pellets were resuspended in lysis buffer containing 300 mM sucrose. Microsomes ([…]) were diluted into a buffer (pH 7.2) containing 8 mM K-phosphocreatine, and creatine kinase (2 U/ml), mixed with 3 μM Fluo-4 and added to multiple wells of a 96-well plate. Ca^2+ loading of the microsomes was initiated by adding 1 mM ATP. After Ca^2+ uptake (50 s), 3 μM thapsigargin was added to inhibit the Ca^2+ reuptake by SERCA. SR Ca^2+ leak was measured by the increase in intensity of the Fluo-4 signal (measured in a Tecan fluorescence plate reader). Ca^2+ leak was quantified as the difference between the average Fluo-4 signal before and after addition of thapsigargin. Graphs were plotted with GraphPad Prism software.

recombinant RyR2 = target: T3, recombinant RyR2 (Homo sapiens, UniProt Q92736); test: Single channel recordings in planar lipid bilayers (open probability); assay type: biochemical; settings: xanthine 10 μM; Ca2+ 150 nM
T3 construct: expressed in transfected cells; host or cells: HEK293
T3 sequence (Q92736 whole entry): as the sequence (Q92736 whole entry R2474S, the tested form may be a part) above, with S2474R counted along it
Protocol: To confirm the functional role of xanthine in RyR2, single-channel experiments were performed. ER vesicles from HEK293 cells expressing RyR2 were prepared by homogenizing cell pellets on ice using a Teflon glass homogenizer with two volumes of solution containing 20 mM tris-maleate (pH 7.4), 1 mM EDTA, 1 mM DTT, and protease inhibitors (Roche). Homogenate was then spun by centrifuge at 4000 g for 15 min at 4° C., and the resulting supernatant was spun by centrifuge at 40,000 g for 30 min at 4° C. The final pellet, containing the ER fractions, was resuspended and aliquoted in 250 mM sucrose, 10 mM Mops (pH 7.4), 1 mM EDTA, 1 mM DTT, and protease inhibitors. Samples were frozen in liquid nitrogen and stored at −80° C.
ER vesicles were fused to planar lipid bilayers formed by painting a lipid mixture of phosphatidylethanolamine and PC (Avanti Polar Lipids) in a 5:3 ratio in decane across a […] in polysulfonate cups (Warner Instruments) separating two chambers. […] The concentration of free Ca^2+ in the cis chamber was calculated as previously described. […] Single-channel currents were recorded at 0 mV using Bilayer Clamp BC-525D (Warner Instruments), filtered at 1 kHz using Low-Pass Bessel Filter 8 Pole (Warner Instruments), and digitized at 4 kHz. […] The recordings were analyzed using Clampfit 10.1 (Molecular Devices) and GraphPad Prism software.

[2] = 50 mg/kg per day in drinking water for 2 weeks, epinephrine 1 mg/kg i.p.
[3] = P-RyR2-R2474S + Cpd1 vs closed/open PKA RyR2, 0 = closed state, 1 = open state

Structure (SMILES): COc1ccc2c(c1)CN(Cc1ccc(C(=O)O)cc1)CCS2 [Compound 1]
- frequency of ventricular tachycardia (Ryr2^R2474S/WT mice; [2]): reduced the frequency of ventricular tachycardia
- sudden cardiac death (SCD) (Ryr2^R2474S/WT mice; [2]): prevented sudden cardiac death
- sustained ventricular tachycardia (sVT) (Ryr2^R2474S/WT mice; 50 mg/kg/day in drinking water, epinephrine 1 mg/kg): prevented sVT
- effect on the primed state of PKA-phosphorylated RyR2-R2474S (cryo-EM structure comparison) ([1]; 10 mM ATP, 150 nM free Ca2+, 500 μM xanthine): partially reversed the primed state
- Normalized difference in RMSD, BSol [1, 3]: 0.32
- Normalized difference in RMSD, BSol2 [1, 3]: 0.40
- Normalized difference in RMSD, NTD [1, 3]: 0.42
- Normalized difference in RMSD, SPRY [1, 3]: 0.41
- reduction toward the closed state in RMSD analysis compared to primed PKA-phosphorylated RyR2-R2474S ([1]; in some domains): more than 50%
- RMSD Cα BSol, P-RyR2-R2474S + Cpd1 (PDB:7UA1) vs P-RyR2-C (PDB:7U9Q) ([1]; vs closed PKA RyR2): 1.61 ± Å
- RMSD Cα NTD, P-RyR2-R2474S + Cpd1 (PDB:7UA1) vs P-RyR2-C (PDB:7U9Q) ([1]; vs closed PKA RyR2): 1.20 ± Å
- RMSD Cα SPRY, P-RyR2-R2474S + Cpd1 (PDB:7UA1) vs P-RyR2-C (PDB:7U9Q) ([1]; vs closed PKA RyR2): 0.88 ± Å
- RMSD Cα BSol2, P-RyR2-R2474S + Cpd1 (PDB:7UA1) vs P-RyR2-C (PDB:7U9Q) ([1]; vs closed PKA RyR2, 10 mM NaATP, 500 μM xanthine, 150 nM free Ca2+): 3.08 ± Å
- RMSD Cα CSol, P-RyR2-R2474S + Cpd1 (PDB:7UA1) vs P-RyR2-C (PDB:7U9Q) ([1]; vs closed PKA RyR2, aligned control domain, used as error): 0.53 Å
- RMSD Cα BSol2, P-RyR2-R2474S + Cpd1 (PDB:7UA1) vs P-RyR2-O (PDB:7U9R) ([1]; vs open PKA RyR2): 4.63 ± Å
- RMSD Cα BSol, P-RyR2-R2474S + Cpd1 (PDB:7UA1) vs P-RyR2-O (PDB:7U9R) ([1]; vs open PKA RyR2): 3.36 ± Å
- RMSD Cα NTD, P-RyR2-R2474S + Cpd1 (PDB:7UA1) vs P-RyR2-O (PDB:7U9R) ([1]; vs open PKA RyR2): 1.66 ± Å
- RMSD Cα SPRY, P-RyR2-R2474S + Cpd1 (PDB:7UA1) vs P-RyR2-O (PDB:7U9R) ([1]; vs open PKA RyR2): 1.25 ± Å
- RMSD Cα CSol, P-RyR2-R2474S + Cpd1 (PDB:7UA1) vs P-RyR2-O (PDB:7U9R) ([1]; vs open PKA RyR2, aligned control domain, used as error): 0.41 Å
- SR Ca^2+ leak (increase in Fluo-4 signal after thapsigargin) (RyR2-R2474S channels): prevented SR Ca^2+ leak

Structure (SMILES): O=c1[nH]c(=O)c2[nH]cnc2[nH]1 [xanthine]
- increase in the open probability of RyR2 (recombinant RyR2): ~25 fold
